Here are results for 3 molecules from patent publication US8722849B2, “Polypeptides” (Novo Nordisk A/S, priority 2011, dated 2014).

Series [1] concerns the target T1, human amylin receptor (amylin 3(a) receptor: human calcitonin receptor + RAMP-3) (Homo sapiens, UniProt O60896+P30988).
T1 construct: expressed in transfected cells; host or cells: BHK570
T1 sequence (P30988 25-474): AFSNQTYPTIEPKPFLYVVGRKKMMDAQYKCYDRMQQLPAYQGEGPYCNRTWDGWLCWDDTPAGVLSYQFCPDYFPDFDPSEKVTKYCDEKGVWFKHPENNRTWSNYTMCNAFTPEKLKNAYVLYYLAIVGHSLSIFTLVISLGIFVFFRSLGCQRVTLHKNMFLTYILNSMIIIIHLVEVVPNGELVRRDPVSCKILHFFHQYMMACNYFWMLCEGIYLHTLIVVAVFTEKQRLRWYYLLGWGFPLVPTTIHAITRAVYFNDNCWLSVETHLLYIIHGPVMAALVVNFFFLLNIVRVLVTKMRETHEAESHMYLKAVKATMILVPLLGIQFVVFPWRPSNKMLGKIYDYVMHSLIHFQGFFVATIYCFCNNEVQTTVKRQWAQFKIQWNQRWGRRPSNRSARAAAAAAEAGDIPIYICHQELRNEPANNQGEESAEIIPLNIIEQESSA
T1 sequence (O60896 24-148 partner): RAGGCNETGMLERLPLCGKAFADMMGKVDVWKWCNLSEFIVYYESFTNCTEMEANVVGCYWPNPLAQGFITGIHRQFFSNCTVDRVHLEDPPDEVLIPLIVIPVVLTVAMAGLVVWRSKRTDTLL
Description: Assay (II)a functional CRE-luciferase assay, human amylin receptor. The format is cell-based. As to conditions: Table 2; BHK amylin 3(a)-receptor/CRE-luc cells.

The target in series [2] is T2, human calcitonin receptor (Homo sapiens, UniProt P30988).
T2 construct: expressed in transfected cells; host or cells: BHK570
T2 sequence (P30988 25-474): T1 sequence (P30988 25-474)
Description: Assay (II)a functional CRE-luciferase assay, human calcitonin receptor. As to conditions: Table 7; human calcitonin (CTa) receptor. The format is cell-based.

Series [3] deals with T3, rat amylin 3(a) receptor (rat calcitonin(a) receptor + rat RAMP3) (Rattus norvegicus, UniProt P32214+Q9JJ73).
T3 construct: expressed in transfected cells; host or cells: BHK tk'ts 13
T3 sequence (P32214 25-479 isoform P32214-2 limits assumed): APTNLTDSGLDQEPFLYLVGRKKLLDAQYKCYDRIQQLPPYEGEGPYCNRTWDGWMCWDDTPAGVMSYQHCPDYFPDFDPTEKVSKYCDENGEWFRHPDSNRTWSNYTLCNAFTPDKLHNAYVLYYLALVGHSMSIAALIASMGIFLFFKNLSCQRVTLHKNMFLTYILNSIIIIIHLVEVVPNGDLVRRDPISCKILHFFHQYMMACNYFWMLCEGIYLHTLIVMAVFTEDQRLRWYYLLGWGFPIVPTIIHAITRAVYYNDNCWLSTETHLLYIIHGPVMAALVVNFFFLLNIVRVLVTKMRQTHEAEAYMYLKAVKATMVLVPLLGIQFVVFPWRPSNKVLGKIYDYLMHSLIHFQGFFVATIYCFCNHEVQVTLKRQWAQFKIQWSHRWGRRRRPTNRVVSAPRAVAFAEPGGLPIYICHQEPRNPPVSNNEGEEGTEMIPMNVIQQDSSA
T3 sequence (Q9JJ73 23-147 partner): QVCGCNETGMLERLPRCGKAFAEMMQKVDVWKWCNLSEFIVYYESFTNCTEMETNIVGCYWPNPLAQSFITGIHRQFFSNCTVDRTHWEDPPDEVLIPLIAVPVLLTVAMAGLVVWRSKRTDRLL
Description: Assay (II)b functional cAMP FlashPlate assay, rat amylin receptor. The following applies: Table 11. The format is cell-based. The procedure, abridged:
(§1)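 BHK tk'ts 13 cells transiently transfected with rat calcitonin(a) receptor, alone or with rat RAMP3 (amylin 3(a)), were stimulated 24 hours later with sample for 30 min in buffer containing IBMX. cAMP measured by competitive radioactive FlashPlate assay, scintillation read after 3 h detection incubation.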

Series [4] concerns the target T4, rat calcitonin (a) receptor (Rattus norvegicus, UniProt P32214).
T4 construct: expressed in transfected cells; host or cells: BHK tk'ts 13
T4 sequence (P32214 25-479 isoform P32214-2 limits assumed): T3 sequence (P32214 25-479 isoform P32214-2 limits assumed)
Description: Assay (II)b functional cAMP FlashPlate assay, rat calcitonin receptor. The format is cell-based. As to conditions: Table 11; read-out: CTa receptor rat EC50. The procedure, abridged: as §1

Series [5] in a line: Assay (IV) determination of solubility. The format is physicochemical. The method, boiled down:
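Polypeptide in water (~500 nmol/ml) mixed 1:1 with 100 mM glycylglycine (pH 3.0–5.0) or bistrispropane (pH 6.0–8.0) buffers. Held 18 hours at room temperature, then centrifuged. Polypeptide remaining in solution quantified by HPLC.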

[6] abbreviates: bistrispropane buffer, pH 6, pH 6.0, read-out: Solubility pH 6.0.
[7] abbreviates: bistrispropane buffer, pH 6.5, pH 6.5, read-out: Solubility pH 6.5.
Where [8] appears, read: bistrispropane buffer, pH 7, pH 7.0, read-out: Solubility pH 7.0.
Where [9] appears, read: bistrispropane buffer, pH 7.5, pH 7.5, read-out: Solubility pH 7.5.
[10] abbreviates: bistrispropane buffer, pH 8, pH 8.0, read-out: Solubility pH 8.0.
Where [11] appears, read: glycylglycine buffer, pH 3, pH 3.0, read-out: Solubility pH 3.0.
Where [12] appears, read: glycylglycine buffer, pH 4, pH 4.0, 18 hours at room temperature, Table 2, read-out: Solubility pH 4.0.
Setting [13] is: glycylglycine buffer, pH 4, pH 4.0, read-out: Solubility pH 4.0.
The mark [14] stands for this setting: glycylglycine buffer, pH 5, pH 5.0, read-out: Solubility pH 5.0.
[15] abbreviates: bistrispropane buffer, pH 7, pH 7.0, 18 hours at room temperature, Table 3, read-out: Solubility pH 7.0.

Each structure is given as a SMILES string. pEC50: −log10 of the molar value. Values after ≈ are worked out from the molar mass of the structure shown. Where two headings read alike, the source gives them in different places. Starred links: 1 amine or outer side, 2 acyl side, 3 side chain; linkers in the order of their positions; H or OH if unused. Positions of bridges follow the written chain, without caps; N, C: chain ends. Residues, ends and D or L forms follow the SMILES beside them. *: point of attachment. C20 diacid = O=C(O)CCCCCCCCCCCCCCCCCCC(=O)*; γGlu = O=C(O)[C@H](CCC(=O)[*:2])N[*:1]

Usually pEC50 stands for the EC50 on a negative log10 scale, so that one unit is a factor of ten. As usually defined, the solubility is the dissolved amount per volume that the medium holds. For `CC[C@H](C)[C@H](NC(=O)[C@@H]1CCCN1C(=O)CNC(=O)[C@H](Cc1ccccc1)NC(=O)[C@H](CC(N)=O)NC(=O)[C@H](CC(N)=O)NC(=O)[C@H](CO)NC(=O)[C@H](CO)NC(=O)[C@H](CCCNC(=N)N)NC(=O)[C@H](Cc1c[nH]cn1)NC(=O)[C@H](CC(C)C)NC(=O)[C@H](Cc1ccccc1)NC(=O)[C@H](CCC(=O)O)NC(=O)[C@H](C)NC(=O)[C@H](CC(C)C)NC(=O)[C@H](CCCNC(=N)N)NC(=O)[C@H](CCC(N)=O)NC(=O)[C@@H](NC(=O)[C@H](C)NC(=O)[C@@H]1CSSC[C@H](NC(=O)[C@H](Cc2c[nH]cn2)NC(=O)CC[C@H](NC(=O)CCCCCCCCCCCCCCCCCCC(=O)O)C(=O)O)C(=O)N[C@@H](CC(N)=O)C(=O)N[C@@H]([C@@H](C)O)C(=O)N[C@@H](C)C(=O)N[C@@H]([C@@H](C)O)C(=O)N1)[C@@H](C)O)C(=O)N[C@@H](CC(C)C)C(=O)N1CCC[C@H]1C(=O)N1CCC[C@H]1C(=O)N[C@H](C(=O)N[C@@H](CC(N)=O)C(=O)N[C@H](C(=O)NCC(=O)N[C@@H](CO)C(=O)N[C@@H](CC(N)=O)C(=O)N[C@H](C(=O)N[C@@H](Cc1ccc(O)cc1)C(N)=O)[C@@H](C)O)C(C)C)[C@@H](C)O` [Example 1, N-alpha-[(S)-4-Carboxy-4-(19-carboxynonadecanoylamino)butyryl]-[His1,Glu14,His17,Arg18]-pramlintide] ({C20 diacid-γGlu}-HCNTATCATQRLAEFLHRSSNNFGPILPPTNVGSNTY-NH2; disulfide 2-7 (inferred)), the pEC50 is 10.03 in series [1], 9.82 in series [2], 10.19 in series [3] and 9.42 in series [4]. In addition, the solubility at 18 h in series [5] (setting [6]) was 52 µM (≈ 233 µg/mL); in series [5] (setting [7]), 16 µM (≈ 71.7 µg/mL); in series [5] (setting [8]), 15 µM (≈ 67.3 µg/mL); in series [5] (setting [9]), 58 µM (≈ 260 µg/mL); in series [5] (setting [10]), 138 µM (≈ 619 µg/mL); in series [5] (setting [11]), above 200 µM. Besides, the solubility at 18 h in series [5] (setting [12]), in series [5] (setting [13]) and in series [5] (setting [14]) was above 200 µM each time.
For `CC[C@H](C)[C@H](NC(=O)[C@@H]1CCCN1C(=O)CNC(=O)[C@H](Cc1ccccc1)NC(=O)[C@H](CC(N)=O)NC(=O)[C@H](CC(N)=O)NC(=O)[C@H](CO)NC(=O)[C@H](CO)NC(=O)[C@H](CCCNC(=N)N)NC(=O)[C@H](Cc1c[nH]cn1)NC(=O)[C@H](CC(C)C)NC(=O)[C@H](Cc1ccccc1)NC(=O)[C@H](CCC(=O)O)NC(=O)[C@H](C)NC(=O)[C@H](CC(C)C)NC(=O)[C@H](CCCNC(=N)N)NC(=O)[C@H](CCC(N)=O)NC(=O)[C@@H](NC(=O)[C@H](C)NC(=O)[C@@H]1CSSC[C@H](NC(=O)[C@H](CCC(=O)O)NC(=O)CC[C@H](NC(=O)CCCCCCCCCCCCCCCCCCC(=O)O)C(=O)O)C(=O)N[C@@H](CC(N)=O)C(=O)N[C@@H]([C@@H](C)O)C(=O)N[C@@H](C)C(=O)N[C@@H]([C@@H](C)O)C(=O)N1)[C@@H](C)O)C(=O)N[C@@H](CC(C)C)C(=O)N1CCC[C@H]1C(=O)N1CCC[C@H]1C(=O)N[C@H](C(=O)N[C@@H](CC(N)=O)C(=O)N[C@H](C(=O)NCC(=O)N[C@@H](CO)C(=O)N[C@@H](CC(N)=O)C(=O)N[C@H](C(=O)N1CCC[C@H]1C(N)=O)[C@@H](C)O)C(C)C)[C@@H](C)O` [Example 10, N-alpha-[(S)-4-Carboxy-4-(19-carboxynonadecanoylamino)butyryl]-[Glu1,Glu14,His17,Arg18,Pro37]-pramlintide] ({C20 diacid-γGlu}-ECNTATCATQRLAEFLHRSSNNFGPILPPTNVGSNTP-NH2; disulfide 2-7), the pEC50 is 10.08 in series [1], 10.06 in series [2], 9.43 in series [3] and 9.09 in series [4]. For the same molecule, the solubility at 18 h in series [5] (setting [6]), in series [5] (setting [7]), in series [5] (setting [15]), in series [5] (setting [8]), in series [5] (setting [9]) and in series [5] (setting [10]) was above 200 µM in each case. The solubility at 18 h in series [5] (setting [11]), in series [5] (setting [12]), in series [5] (setting [13]) and in series [5] (setting [14]) was above 200 µM each time.
As to `CC[C@H](C)[C@H](NC(=O)[C@@H]1CCCN1C(=O)CNC(=O)[C@H](Cc1ccccc1)NC(=O)[C@H](CC(N)=O)NC(=O)[C@H](CC(N)=O)NC(=O)[C@H](CO)NC(=O)[C@H](CO)NC(=O)[C@H](Cc1c[nH]cn1)NC(=O)[C@H](CCCNC(=N)N)NC(=O)[C@H](CC(C)C)NC(=O)[C@H](Cc1ccccc1)NC(=O)[C@H](CCC(=O)O)NC(=O)[C@H](C)NC(=O)[C@H](CC(C)C)NC(=O)[C@H](CCCNC(=N)N)NC(=O)[C@H](CCC(N)=O)NC(=O)[C@@H](NC(=O)[C@H](C)NC(=O)[C@@H]1CSSC[C@H](NC(=O)[C@H](CCCCN)NC(=O)CC[C@H](NC(=O)CCCCCCCCCCCCCCCCCCC(=O)O)C(=O)O)C(=O)N[C@@H](CC(N)=O)C(=O)N[C@@H]([C@@H](C)O)C(=O)N[C@@H](C)C(=O)N[C@@H]([C@@H](C)O)C(=O)N1)[C@@H](C)O)C(=O)N[C@@H](CC(C)C)C(=O)N1CCC[C@H]1C(=O)N1CCC[C@H]1C(=O)N[C@H](C(=O)N[C@@H](CC(N)=O)C(=O)N[C@H](C(=O)NCC(=O)N[C@@H](CO)C(=O)N[C@@H](CC(N)=O)C(=O)N[C@H](C(=O)N1CCC[C@H]1C(N)=O)[C@@H](C)O)C(C)C)[C@@H](C)O` [Example 53, N-alpha-[(S)-4-Carboxy-4-(19-carboxynonadecanoylamino)butyryl]-[Glu14,Arg17,Pro37]-pramlintide], the pEC50 in series [3] was 9.46; in series [4] it was 9.54. Also, the solubility at 18 h is above 200 µM in series [5] (setting [6]); above 200 µM in series [5] (setting [7]); above 200 µM in series [5] (setting [15]); above 200 µM in series [5] (bistrispropane buffer, pH 7, pH 7.0, Table 8, read-out: Solubility pH 7.0); above 200 µM in series [5] (bistrispropane buffer, pH 7, pH 7.0, Table 9, read-out: Solubility pH 7.0); above 200 µM in series [5] (setting [8]). In addition, the solubility at 18 h in series [5] (bistrispropane buffer, pH 7.5, pH 7.5, Table 9, read-out: Solubility pH 7.5) is above 200 µM; in series [5] (setting [9]), above 200 µM; in series [5] (setting [10]), above 200 µM; in series [5] (setting [11]), above 200 µM; in series [5] (setting [12]), above 200 µM; in series [5] (setting [13]), above 200 µM. Moreover, the solubility at 18 h in series [5] (setting [14]) was above 200 µM.
